Results taken from ChEMBL document CHEMBL5303304, “EUbOPEN Chemogenomics Library - IncuCyte” (2023).

What was measured:
Type in all cases: toxicity, cell-based
U2OS = assay: Incucyte cell viability with U2OS; settings: human, 10 µM, compound concentration 10 uM
HEK-293T = assay: Incucyte cell viability with HEK293T; settings: human, 10 µM, compound concentration 10 uM
Fibroblast = assay: Incucyte cell viability with human fibroblast; settings: 10 µM, compound concentration 10 uM
Further: unitless GR value; below 1 slowed growth and below 0 cell loss.

Row | Structure (SMILES) | Growth Rate (U2OS; 0 h, replicate number 2) | Growth Rate (U2OS; 6 h, replicate number 2) | Growth Rate (U2OS; 12 h, replicate number 1) | Growth Rate (U2OS; 12 h, replicate number 2) | Growth Rate (U2OS; 18 h, replicate number 1) | Growth Rate (U2OS; 18 h, replicate number 2) | Growth Rate (U2OS; 24 h, replicate number 1) | Growth Rate (U2OS; 24 h, replicate number 2) | Growth Rate (HEK-293T; 6 h, replicate number 1) | Growth Rate (HEK-293T; 12 h, replicate number 1) | Growth Rate (HEK-293T; 12 h, replicate number 2) | Growth Rate (HEK-293T; 18 h, replicate number 1) | Growth Rate (HEK-293T; 18 h, replicate number 2) | Growth Rate (HEK-293T; 24 h, replicate number 1) | Growth Rate (HEK-293T; 24 h, replicate number 2) | Growth Rate (Fibroblast; 6 h, replicate number 2) | Growth Rate (Fibroblast; 18 h, replicate number 2) | Growth Rate (Fibroblast; 24 h, replicate number 2) | Growth Rate (U2OS; 0 h, replicate number 1) | Growth Rate (HEK-293T; 6 h, replicate number 2) | also measured
1 | O=C(Nc1ccccc1Cl)c1cnc2ccc(C3CCNCC3)cn12.O=C(O)C(=O)O | -1 | 0.06 | 0.46 | 0.5 | 0.62 | 0.61 | 0.64 | 0.59 | -0.96 | -0.83 | -0.61 | -0.53 | -0.27 | -0.28 | -0.03 | -1 | 0.05 | 0.33 | – | – | Growth Rate (U2OS; 6 h, replicate number 1): -0.44; Growth Rate (Fibroblast; 12 h, replicate number 2): -0.49; Growth Rate (Fibroblast; 18 h, replicate number 1): -0.51; Growth Rate (Fibroblast; 24 h, replicate number 1): -0.36
2 | O=C(NNC(=O)c1ccc(CNS(=O)(=O)c2ccc(F)c(Cl)c2)cc1)c1ccccc1 | 0.85 | – | – | – | 0.97 | – | – | – | 0.34 | 0.48 | 0.64 | 0.31 | 0.87 | 0.36 | 0.83 | -0.76 | 0.85 | – | 0.67 | 0.59 | Growth Rate (Fibroblast; 0 h, replicate number 1): -0.42; Growth Rate (Fibroblast; 0 h, replicate number 2): -1; Growth Rate (Fibroblast; 18 h, replicate number 1): 0.64
3 | O=S(=O)(Nc1nncs1)c1cc(Cl)c(Oc2ccc(C(F)(F)F)cc2-c2ccnn2C2CNC2)cc1F | -0.77 | 0.95 | – | – | 0.95 | 1 | 0.86 | 0.98 | 0.2 | – | – | – | – | – | – | – | – | – | 0.61 | – | Growth Rate (Fibroblast; 18 h, replicate number 1): 0.41
4 | CC(C)n1cnc2c(Nc3cccc(Cl)c3)nc(N[C@H]3CCCC[C@@H]3N)nc21 | – | 0.88 | -0.26 | -0.22 | -0.12 | -0.25 | -0.14 | -0.2 | -0.96 | -0.82 | -0.59 | -0.56 | -0.35 | -0.46 | -0.25 | -0.94 | -0.01 | 0.13 | -1 | -0.92 | Growth Rate (U2OS; 6 h, replicate number 1): 0.85; Growth Rate (Fibroblast; 6 h, replicate number 1): -1; Growth Rate (Fibroblast; 12 h, replicate number 2): -0.16
5 | CCOC(=O)c1cnn(-c2ccc(NC(=O)C(Cl)=C(Cl)Cl)cc2)c1C(F)(F)F | 0.55 | 0.04 | -0.42 | -0.46 | -0.49 | -0.43 | -0.43 | -0.42 | -0.63 | -0.5 | -0.37 | -0.51 | -0.25 | -0.51 | -0.13 | -1 | -0.7 | -0.57 | -0.17 | -0.52 | Growth Rate (U2OS; 6 h, replicate number 1): -0.33; Growth Rate (Fibroblast; 12 h, replicate number 1): -1; Growth Rate (Fibroblast; 12 h, replicate number 2): -0.86
6 | Cl.Cl.N#Cc1ccc(O[C@@H]2c3ccccc3C[C@H]2N2CCC[C@@H](N)C2)c(Cl)c1 | – | – | 0.7 | 0.96 | 0.67 | 0.86 | 0.72 | 0.93 | -0.97 | -0.93 | -0.24 | -0.77 | -0.13 | -0.66 | -0.04 | 0.35 | 0.29 | 0.37 | -1 | -0.57 | Growth Rate (Fibroblast; 6 h, replicate number 1): -1; Growth Rate (Fibroblast; 12 h, replicate number 2): 0.27
7 | CC(C)(C)c1ccc(NC(=O)N2CCN(c3ncccc3Cl)CC2)cc1 | – | – | 0.89 | – | 0.88 | – | 0.99 | – | -0.72 | -0.41 | 0.06 | -0.12 | 0.09 | -0.21 | 0.17 | – | – | 0.87 | – | -0.47 | Growth Rate (Fibroblast; 0 h, replicate number 2): -0.81; Growth Rate (Fibroblast; 6 h, replicate number 1): 0.2; Growth Rate (Fibroblast; 18 h, replicate number 1): 0.84
